Measured values reported in patent US9796700B2 (Celgene CAR LLC, priority 2013, dated 2017).
pIC50: −log10 of the molar value.

Columns and labels:
MEK1 activated ERK1 = MEK1 activated ERK1 (Homo sapiens (Human), UniProt P27361); test: Omnia continuous-read kinase assay for potency against MEK1 activated ERK1; format: biochemical; conditions: MEK1 activated ERK1, WT, ATP at KM
Outline: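 Apparent IC50 came from initial reaction slopes (RFU vs time) plotted against log inhibitor with a variable-slope fit. Reactions were started with ERK1 (4 nM final) added to 50 μM ATP, roughly at its appKM, and 10 μM Sox-conjugated ST17 peptide in 20 mM Tris pH 7.5, 5 mM MgCl2. Fluorescence was monitored every 71 seconds.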

Erk1 = Erk1 (Homo sapiens (Human), UniProt P27361); test: Protein Mass Modification Assay (intact protein MALDI); format: binding
Outline: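 Human Erk1 was incubated 60 min at room temperature with a 10-fold molar excess of compound, then analysed as intact protein by MALDI with sinapinic acid matrix. The centroid mass shift versus untreated protein was divided by compound molecular weight to give percent modified protein.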

Chain of Erk1 (P27361 whole entry, looked up): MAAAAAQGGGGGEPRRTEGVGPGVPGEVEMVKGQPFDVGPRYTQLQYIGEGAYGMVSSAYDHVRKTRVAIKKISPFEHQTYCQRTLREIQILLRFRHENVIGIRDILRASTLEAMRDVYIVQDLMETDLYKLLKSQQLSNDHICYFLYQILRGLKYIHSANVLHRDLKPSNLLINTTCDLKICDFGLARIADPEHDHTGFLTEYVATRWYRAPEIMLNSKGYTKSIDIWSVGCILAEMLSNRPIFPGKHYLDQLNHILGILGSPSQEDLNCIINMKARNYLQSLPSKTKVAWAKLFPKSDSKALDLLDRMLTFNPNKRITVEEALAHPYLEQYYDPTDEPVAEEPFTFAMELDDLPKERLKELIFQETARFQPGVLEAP
Chain of MEK1 activated ERK1 (P27361 whole entry): as the sequence (P27361 whole entry, looked up) above

With `C=CC(=O)Nc1ccccc1Nc1nc(Nc2cc(C(=O)NOC)ccc2C)ncc1C(F)(F)F` [Compound I-69, 3-((4-((2-Acrylamidophenyl)amino)-5-(trifluoromethyl)pyrimidin-2-yl)amino)-N-methoxy-4-methylbenzamide] the pIC50 (MEK1 activated ERK1) was > 7.00 and the “ERK1 Mass Mod (%)” value (Erk1) was “E (provided a mass modification of ≧70%)”.
In the case of `CC(C)=CC(=O)c1ccccc1Oc1nc(Nc2ccc(F)cc2C)ncc1Cl` [Compound I-222, 1-(2-((5-chloro-2-((4-fluoro-2-methylphenyl)amino)pyrimidin-4-yl)oxy)phenyl)-3-methylbut-2-en-1-one], the pIC50 (MEK1 activated ERK1) was < 6.00 and the “ERK1 Mass Mod (%)” value (Erk1) was “G (proived a mass modification ≦30%)”.
In the case of `CC(=O)N1CCC[C@H](Nc2ncc(C(F)(F)F)c(N[C@@H]3[C@H](C(N)=O)[C@H]4C=C[C@@H]3C4)n2)C1` [Compound I-309, (1R,2R,3S,4S)-3-((2-(((S)-1-acetylpiperidin-3-yl)amino)-5-(trifluoromethyl)pyrimidin-4-yl)amino)bicyclo[2.2.1]hept-5-ene-2-carboxamide], the pIC50 (MEK1 activated ERK1) was < 6.00 and the “ERK1 Mass Mod (%)” value (Erk1) was “G (proived a mass modification ≦30%)”.
In the case of `CC(C)=CC(=O)c1ccccc1Oc1nc(Nc2cc(C(N)=O)ccc2C)ncc1C(N)=O` [Compound I-271, 2-((5-carbamoyl-2-methylphenyl)amino)-4-(2-(3-methylbut-2-enoyl)phenoxy)pyrimidine-5-carboxamide], the pIC50 (MEK1 activated ERK1) was < 6.00 and the “ERK1 Mass Mod (%)” value (Erk1) was “G (proived a mass modification ≦30%)”.
With `C=CC(=O)Nc1ccccc1Nc1nc(Nc2cc(NCCOC)nc(OC)c2)ncc1C(F)(F)F` [Compound I-286, N-(2-((2-((2-Methoxy-6-((2-methoxyethyl)amino)pyridin-4-yl)amino)-5-(trifluoromethyl)pyrimidin-4-yl)amino)phenyl)acrylamide] the pIC50 (MEK1 activated ERK1) was > 7.00 and the “ERK1 Mass Mod (%)” value (Erk1) was “E (provided a mass modification of ≧70%)”.
With `C=C(C)S(=O)(=O)Nc1cc(C)ccc1Nc1nc(Nc2cc(C(C)=O)ccc2C)ncc1C(F)(F)F` [Compound I-98, N-(2-((2-((5-acetyl-2-methylphenyl)amino)-5-(trifluoromethyl)pyrimidin-4-yl)amino)-5-methylphenyl)prop-1-ene-2-sulfonamide] the pIC50 (MEK1 activated ERK1) was > 7.00 and the “ERK1 Mass Mod (%)” value (Erk1) was “E (provided a mass modification of ≧70%)”.
With `C/C=C/C(=O)Nc1ccccc1Nc1nc(Nc2cc(C(N)=O)ccc2C)ncc1Cl` [Compound I-219, (E)-3-((4-((2-(but-2-enamido)phenyl)amino)-5-chloropyrimidin-2-yl)amino)-4-methylbenzamide] the pIC50 (MEK1 activated ERK1) was < 6.00 and the “ERK1 Mass Mod (%)” value (Erk1) was “G (proived a mass modification ≦30%)”.
With `C=CC(=O)Nc1ccccc1Nc1nc(N[C@@H]2CCC[C@H](C(N)=O)C2)ncc1Cl` [Compound I-119, (1S,3R)-3-((4-((2-acrylamidophenyl)amino)-5-chloropyrimidin-2-yl)amino)cyclohexanecarboxamide] the pIC50 (MEK1 activated ERK1) was > 7.00 and the “ERK1 Mass Mod (%)” value (Erk1) was “E (provided a mass modification of ≧70%)”.
In the case of `COc1cc(N2CCOCC2)ccc1Nc1ncc(N)c(Nc2ccccc2N)n1` [Compound I-312, N^4-(2-aminophenyl)-N^2-(2-methoxy-4-morpholinophenyl)pyrimidine-2,4,5-triamine], the pIC50 (MEK1 activated ERK1) was < 6.00 and the “ERK1 Mass Mod (%)” value (Erk1) was “G (proived a mass modification ≦30%)”.
For `C=CC(=O)Nc1ccccc1Nc1nc(Nc2cc(OC)nc(OCCOC)c2)ncc1C(F)(F)F` [Compound I-283, N-(2-((2-((2-Methoxy-6-(2-methoxyethoxy)pyridin-4-yl)amino)-5-(trifluoromethyl)pyrimidin-4-yl)amino)phenyl)acrylamide], the pIC50 (MEK1 activated ERK1) was > 7.00 and the “ERK1 Mass Mod (%)” value (Erk1) was “E (provided a mass modification of ≧70%)”.
With `C=CC(=O)Nc1ccccc1Nc1nc(N[C@H]2CCCN(C(=O)OC(C)(C)C)C2)ncc1Cl` [Compound I-132, (S)-tert-butyl 3-((4-((2-acrylamidophenyl)amino)-5-chloropyrimidin-2-yl)amino) piperidine-1-carboxylate] the pIC50 (MEK1 activated ERK1) was < 6.00 and the “ERK1 Mass Mod (%)” value (Erk1) was “E (provided a mass modification of ≧70%)”.
For `C=CC(=O)N[C@@H]1CCCC[C@@H]1Nc1nc(Nc2cc(C(N)=O)ccc2C)ncc1Cl` [Compound I-199, 3-((4-(((1S,2R)-2-acrylamidocyclohexyl)amino)-5-chloropyrimidin-2-yl)amino)-4-methylbenzamide], the pIC50 (MEK1 activated ERK1) was < 6.00 and the “ERK1 Mass Mod (%)” value (Erk1) was “G (proived a mass modification ≦30%)”.
In the case of `C=CC(=O)Nc1cc(C)ccc1Nc1nc(Nc2cc(OC)nc(N3CCN(C(C)=O)CC3)c2)ncc1Cl` [Compound I-296, N-(2-((2-((2-(4-acetylpiperazin-1-yl)-6-methoxypyridin-4-yl)amino)-5-chloropyrimidin-4-yl)amino)-5-methylphenyl)acrylamide], the pIC50 (MEK1 activated ERK1) was > 7.00 and the “ERK1 Mass Mod (%)” value (Erk1) was “E (provided a mass modification of ≧70%)”.
For `CCOCCC(=O)Nc1ccccc1Nc1nc(Nc2cc(C(N)=O)ccc2C)ncc1Cl` [Compound I-130], the pIC50 (MEK1 activated ERK1) was < 6.00 and the “ERK1 Mass Mod (%)” value (Erk1) was “G (proived a mass modification ≦30%)”.
With `C=CC(=O)Nc1cc(OC)ccc1Nc1nc(Nc2ccc(N3CCN(C(=O)OC(C)(C)C)CC3)cc2OC)ncc1Cl` [Compound I-151, tert-butyl 4-(4-((4-((2-acrylamido-4-methoxyphenyl)amino)-5-chloropyrimidin-2-yl)amino)-3-methoxyphenyl)piperazine-1-carboxylate] the pIC50 (MEK1 activated ERK1) was < 6.00 and the “ERK1 Mass Mod (%)” value (Erk1) was “F (provided a mass modification of 31-69%)”.
For `C=CC(=O)Nc1ccccc1Nc1nc(Nc2cc(OC)nc(N3CCS(=O)(=O)CC3)c2)ncc1C(F)(F)F` [Compound I-291, N-(2-((2-((2-(1,1-Dioxidothiomorpholino)-6-methoxypyridin-4-yl)amino)-5-(trifluoromethyl)pyrimidin-4-yl)amino)phenyl)acrylamide], the pIC50 (MEK1 activated ERK1) was > 7.00 and the “ERK1 Mass Mod (%)” value (Erk1) was “E (provided a mass modification of ≧70%)”.
For `C=CC(=O)Nc1cc(C)ccc1Nc1nc(Nc2nc(O)ncc2C)ncc1C(F)(F)F` [Compound I-364, N-(2-((2-((2-hydroxy-5-methylpyrimidin-4-yl)amino)-5-(trifluoromethyl)pyrimidin-4-yl)amino)-5-methylphenyl)acrylamide], the pIC50 (MEK1 activated ERK1) was > 7.00 and the “ERK1 Mass Mod (%)” value (Erk1) was “E (provided a mass modification of ≧70%)”.
`C=CC(=O)Nc1cc(F)ccc1Nc1nc(Nc2cc(C(N)=O)ccc2OC)ncc1Cl` [Compound I-208, 3-((4-((2-acrylamido-4-fluorophenyl)amino)-5-chloropyrimidin-2-yl)amino)-4-methoxybenzamide] was tested, and the pIC50 (MEK1 activated ERK1) was > 7.00 and the “ERK1 Mass Mod (%)” value (Erk1) was “E (provided a mass modification of ≧70%)”.
With `C=C(C)S(=O)(=O)Nc1ccccc1Nc1nc(N[C@H]2CCCN(C(=O)CO)C2)ncc1C(F)(F)F` [Compound I-46, (S)—N-(2-((2-((1-(2-Hydroxyacetyl)piperidin-3-yl)amino)-5-(trifluoromethyl)pyrimidin-4-yl)amino)phenyl)prop-1-ene-2-sulfonamide] the pIC50 (MEK1 activated ERK1) was > 7.00 and the “ERK1 Mass Mod (%)” value (Erk1) was “G (proived a mass modification ≦30%)”.
In the case of `C=CC(=O)Nc1ccccc1Nc1nc(Nc2cc(C(N)=O)ccc2CC)ncc1Cl` [Compound I-193, 3-((4-((2-acrylamidophenyl)amino)-5-chloropyrimidin-2-yl)amino)-4-ethylbenzamide], the pIC50 (MEK1 activated ERK1) was > 7.00 and the “ERK1 Mass Mod (%)” value (Erk1) was “E (provided a mass modification of ≧70%)”.
With `C=CC(=O)Nc1cc(C)ccc1Nc1nc(Nc2cc(OC)nc(N3CCC3)c2)ncc1C(F)(F)F` [Compound I-329, N-(2-((2-((2-(azetidin-1-yl)-6-methoxypyridin-4-yl)amino)-5-(trifluoromethyl)pyrimidin-4-yl)amino)-5-methylphenyl)acrylamide] the pIC50 (MEK1 activated ERK1) was < 6.00 and the “ERK1 Mass Mod (%)” value (Erk1) was “E (provided a mass modification of ≧70%)”.
`C=CC(=O)Nc1cc(OC)ccc1Nc1nc(Nc2cc(OC)ncc2C)ncc1C(F)(F)F` [Compound I-284, N-(5-Methoxy-2-((2-((2-methoxy-5-methylpyridin-4-yl)amino)-5-(trifluoromethyl)pyrimidin-4-yl)amino)phenyl)acrylamide] was tested, and the pIC50 (MEK1 activated ERK1) was > 7.00 and the “ERK1 Mass Mod (%)” value (Erk1) was “E (provided a mass modification of ≧70%)”.
In the case of `C=CC(=O)Nc1cc(C)ccc1Nc1nc(Nc2cc(Cl)nc(OC)c2)ncc1Cl` [Compound I-244, N-(2-((5-chloro-2-((2-chloro-6-methoxypyridin-4-yl)amino)pyrimidin-4-yl)amino)-5-methylphenyl)acrylamide], the pIC50 (MEK1 activated ERK1) was < 6.00 and the “ERK1 Mass Mod (%)” value (Erk1) was “E (provided a mass modification of ≧70%)”.
In the case of `C=CC(=O)Nc1cc(F)ccc1Nc1nc(Nc2cc(OC)ncc2C)ncc1C(F)(F)F` [Compound I-322, N-(5-fluoro-2-((2-((2-methoxy-5-methylpyridin-4-yl)amino)-5-(trifluoromethyl)pyrimidin-4-yl)amino)phenyl)acrylamide], the pIC50 (MEK1 activated ERK1) was > 7.00 and the “ERK1 Mass Mod (%)” value (Erk1) was “E (provided a mass modification of ≧70%)”.
With `C=CC(=O)Nc1cc(OC)ccc1Nc1nc(N[C@H]2CCCN(C(=O)CO)C2)ncc1C(F)(F)F` [Compound I-64, (S)—N-(2-((2-((1-(2-Hydroxyacetyl)piperidin-3-yl)amino)-5-(trifluoromethyl)pyrimidin-4-yl)amino)-5-methoxyphenyl)acrylamide] the pIC50 (MEK1 activated ERK1) was > 7.00 and the “ERK1 Mass Mod (%)” value (Erk1) was “E (provided a mass modification of ≧70%)”.
In the case of `CCC(=O)Nc1ccccc1Nc1nc(Nc2ccc3c(c2)CCCC(=O)N3CCCN)ncc1Cl` [Compound I-314, N-(2-((2-((1-(3-aminopropyl)-2-oxo-2,3,4,5-tetrahydro-1H-benzo[b]azepin-7-yl)amino)-5-chloropyrimidin-4-yl)amino)phenyl)propionamide], the pIC50 (MEK1 activated ERK1) was > 7.00 and the “ERK1 Mass Mod (%)” value (Erk1) was “G (proived a mass modification ≦30%)”.
For `C=CC(=O)Nc1ccccc1CNc1nc(N[C@H]2CCCN(C(=O)CO)C2)ncc1C(F)(F)F` [Compound I-45, (S)—N-(2-(((2-((1-(2-Hydroxyacetyl)piperidin-3-yl)amino)-5-(trifluoromethyl)pyrimidin-4-yl)amino)methyl)phenyl)acrylamide], the pIC50 (MEK1 activated ERK1) was < 6.00 and the “ERK1 Mass Mod (%)” value (Erk1) was “G (proived a mass modification ≦30%)”.
